In the supplement of paper PMC10307832:

Compound: C1=CC2=C(C=C(C(=C2N=C1)O)N=NC3=CC4=C(C=C3)C=C(C=C4)S(=O)(=O)O)S(=O)(=O)O + NC(=O)Nc1cc(-c2cccc(F)c2)sc1C(=O)N[C@H]1CCCNC1 [AZD7762] (partner 0.2 µM)
Experiment: relative viability (nuclei count vs DMSO), 5 days (fraction); higher = more cells survive
Settings: first compound 0.08 µM
Method in brief: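 Values are medians from duplicate plates. Each reflects relative viability, defined as the nuclei count of treated wells over that of vehicle wells. Lung cancer cell lines in 1536-well plates were pin-tool dosed one day after seeding with one drug alone or with a fixed anchor-drug dose plus five library-drug doses (not always all listed) in √10 steps, then fixed, stained and imaged at 4× after 5 days.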

Going from NCI-H441 to NCI-H1734, the relative viability falls from 1.18 to 0.633.

Compared with NCI-H460, NCI-H2347 is higher in relative viability: 0.612 for the first, 0.838 for the second.

Going from NCI-H1395 to 201T, the relative viability rises from 0.383 to 0.691.

Compared with NCI-H1915, HCC-827 is lower in relative viability: 0.735 for the first, 0.184 for the second.

Compared with LXF-289, NCI-H23 is lower in relative viability: 1.23 for the first, 0.186 for the second.

Going from NCI-H647 to CAL-12T, the relative viability rises from 0.473 to 0.621.

Going from NCI-H1651 to EPLC-272H, the relative viability falls from 0.501 to 0.204.

First: NCI-H1355
Second: NCI-H3122
The relative viability of the first is lower: 0.801 for the first, 0.967 for the second.

Going from NCI-H1437 to NCI-H1755, the relative viability falls from 1.11 to 0.535.

Going from HCC-15 to NCI-H1793, the relative viability falls from 1.32 to 0.411.

Compared with PC-14, EKVX is higher in relative viability: 0.353 for the first, 0.836 for the second.

First: LC-2-ad
Second: NCI-H1944
The relative viability of the first is higher: 0.894 for the first, 0.643 for the second.

NCI-H1975 was tested, and the relative viability was 0.715.

Same assay, conditions: first compound 0.253 µM

Going from HOP-62 to LU99A, the relative viability rises from 0.34 to 0.376.

Compared with BEN, HARA is lower in relative viability: 0.749 for the first, 0.261 for the second.

First: HCC-78
Second: NCI-H322M
The relative viability of the first is higher: 0.628 for the first, 0.625 for the second.

First: LCLC-97TM1
Second: A-427
The relative viability of the first is lower: 0.22 for the first, 0.816 for the second.

Compared with NCI-H441, NCI-H1734 is lower in relative viability: 1.08 for the first, 0.558 for the second.

Going from NCI-H460 to NCI-H2347, the relative viability rises from 0.629 to 0.734.

Compared with NCI-H1395, 201T is higher in relative viability: 0.404 for the first, 0.652 for the second.

First: NCI-H1915
Second: HCC-827
The relative viability of the first is higher: 0.706 for the first, 0.279 for the second.

First: LXF-289
Second: NCI-H23
The relative viability of the first is higher: 1.06 for the first, 0.199 for the second.

First: NCI-H647
Second: CAL-12T
The relative viability of the first is lower: 0.321 for the first, 0.6 for the second.

Going from NCI-H1651 to EPLC-272H, the relative viability falls from 0.49 to 0.212.

First: NCI-H1355
Second: NCI-H3122
The relative viability of the first is lower: 0.726 for the first, 0.976 for the second.

Compared with NCI-H1437, NCI-H1755 is lower in relative viability: 1.11 for the first, 0.419 for the second.

Compared with HCC-15, NCI-H1793 is lower in relative viability: 1.25 for the first, 0.407 for the second.

Compared with PC-14, EKVX is higher in relative viability: 0.294 for the first, 0.78 for the second.

Compared with LC-2-ad, NCI-H1944 is lower in relative viability: 0.802 for the first, 0.647 for the second.

Work on NCI-H1975 yielded a relative viability of 0.69.

Same assay, conditions: first compound 0.8 µM

Compared with HOP-62, LU99A is lower in relative viability: 0.607 for the first, 0.421 for the second.

Compared with BEN, HARA is lower in relative viability: 0.729 for the first, 0.267 for the second.

Compared with HCC-78, NCI-H322M is lower in relative viability: 0.675 for the first, 0.522 for the second.

Going from LCLC-97TM1 to A-427, the relative viability rises from 0.292 to 0.767.

Going from NCI-H441 to NCI-H1734, the relative viability falls from 0.946 to 0.566.

Going from NCI-H460 to NCI-H2347, the relative viability rises from 0.605 to 0.846.

Compared with NCI-H1395, 201T is higher in relative viability: 0.395 for the first, 0.56 for the second.

Going from NCI-H1915 to HCC-827, the relative viability falls from 0.661 to 0.235.

First: LXF-289
Second: NCI-H23
The relative viability of the first is higher: 1.07 for the first, 0.317 for the second.

Going from NCI-H647 to CAL-12T, the relative viability rises from 0.513 to 0.61.

First: NCI-H1651
Second: EPLC-272H
The relative viability of the first is higher: 0.474 for the first, 0.177 for the second.

First: NCI-H1355
Second: NCI-H3122
The relative viability of the first is lower: 0.723 for the first, 0.975 for the second.

Compared with NCI-H1437, NCI-H1755 is lower in relative viability: 1.1 for the first, 0.361 for the second.

Going from HCC-15 to NCI-H1793, the relative viability falls from 1.23 to 0.481.

Going from PC-14 to EKVX, the relative viability rises from 0.305 to 0.61.

First: LC-2-ad
Second: NCI-H1944
The relative viability of the first is higher: 0.829 for the first, 0.746 for the second.

Cell Line NCI-H1975 has a relative viability of 0.671.

Same assay, conditions: first compound 2.53 µM

Going from HOP-62 to LU99A, the relative viability falls from 0.731 to 0.35.

Going from BEN to HARA, the relative viability falls from 0.77 to 0.362.

Going from HCC-78 to NCI-H322M, the relative viability falls from 0.657 to 0.598.

Compared with LCLC-97TM1, A-427 is higher in relative viability: 0.214 for the first, 0.822 for the second.

Going from NCI-H441 to NCI-H1734, the relative viability falls from 1.13 to 0.527.

Compared with NCI-H460, NCI-H2347 is higher in relative viability: 0.637 for the first, 1.01 for the second.

Going from NCI-H1395 to 201T, the relative viability rises from 0.411 to 0.632.

Going from NCI-H1915 to HCC-827, the relative viability falls from 0.688 to 0.192.

Going from LXF-289 to NCI-H23, the relative viability falls from 1.11 to 0.177.

First: NCI-H647
Second: CAL-12T
The relative viability of the first is lower: 0.471 for the first, 0.635 for the second.

Compared with NCI-H1651, EPLC-272H is lower in relative viability: 0.489 for the first, 0.311 for the second.

Compared with NCI-H1355, NCI-H3122 is higher in relative viability: 0.824 for the first, 1.03 for the second.

First: NCI-H1437
Second: NCI-H1755
The relative viability of the first is higher: 1.2 for the first, 0.457 for the second.

Compared with HCC-15, NCI-H1793 is lower in relative viability: 1.18 for the first, 0.497 for the second.

First: PC-14
Second: EKVX
The relative viability of the first is lower: 0.375 for the first, 0.702 for the second.

Compared with LC-2-ad, NCI-H1944 is lower in relative viability: 0.847 for the first, 0.519 for the second.

Cell Line NCI-H1975 has a relative viability of 0.748.

Same assay, conditions: first compound 8 µM

First: HOP-62
Second: LU99A
The relative viability of the first is higher: 0.57 for the first, 0.37 for the second.

Compared with BEN, HARA is lower in relative viability: 0.557 for the first, 0.469 for the second.

Compared with HCC-78, NCI-H322M is higher in relative viability: 0.591 for the first, 0.71 for the second.

Compared with LCLC-97TM1, A-427 is higher in relative viability: 0.314 for the first, 0.743 for the second.

Compared with NCI-H441, NCI-H1734 is lower in relative viability: 1.13 for the first, 0.566 for the second.

Compared with NCI-H460, NCI-H2347 is higher in relative viability: 0.53 for the first, 0.705 for the second.

Compared with NCI-H1395, 201T is higher in relative viability: 0.358 for the first, 0.634 for the second.

Compared with NCI-H1915, HCC-827 is lower in relative viability: 0.679 for the first, 0.246 for the second.

First: LXF-289
Second: NCI-H23
The relative viability of the first is higher: 1.15 for the first, 0.312 for the second.

Going from NCI-H647 to CAL-12T, the relative viability rises from 0.345 to 0.601.

Going from NCI-H1651 to EPLC-272H, the relative viability falls from 0.437 to 0.177.

Compared with NCI-H1355, NCI-H3122 is higher in relative viability: 0.64 for the first, 0.962 for the second.

Going from NCI-H1437 to NCI-H1755, the relative viability falls from 1.08 to 0.459.

First: HCC-15
Second: NCI-H1793
The relative viability of the first is higher: 1.15 for the first, 0.455 for the second.

First: PC-14
Second: EKVX
The relative viability of the first is lower: 0.328 for the first, 0.702 for the second.

Going from LC-2-ad to NCI-H1944, the relative viability falls from 0.796 to 0.464.

With NCI-H1975 the relative viability was 0.702.
